SMILES strings stand for the structures. Starred links: 1 amine or outer side, 2 acyl side, 3 side chain; linkers in the order of their positions; H or OH if unused. Positions of bridges follow the written chain, without caps; N, C: chain ends. Non-standard residues stand in square brackets, D forms with d. Residues, ends and D or L forms follow the SMILES beside them. Groups on a side chain read outwards from the residue. *: point of attachment. C20 diacid = O=C(O)CCCCCCCCCCCCCCCCCCC(=O)*; C18 diacid = O=C(O)CCCCCCCCCCCCCCCCC(=O)*; γGlu = O=C(O)[C@H](CCC(=O)[*:2])N[*:1]; Orn = NCCC[C@H](N)C(=O)O; AEEA = NCCOCCOCC(=O)O

The record followed here is patent US9029325B2, “Amylin analogues and pharmaceutical compositions thereof” (Novo Nordisk A/S, priority 2011, dated 2015).

The nature of series [1]: Assay (III) ThT fibrillation assay for physical stability. Format: physicochemical. The text has this:
Low physical stability of a polypeptide may lead to amyloid fibril formation, which is observed as well-ordered, thread-like macromolecular structures in the sample eventually resulting in gel formation. This has traditionally been measured by visual inspection of the sample. However, that kind of measurement is very subjective and depending on the observer. Therefore, the application of a small molecule indicator probe is much more advantageous. Thioflavin T (ThT) is such a probe and has a distinct fluorescence signature when binding to fibrils [Naiki et al. (1989) Anal. Biochem. 177, 244-249; LeVine (1999) Methods. Enzymol. […], 274-284].
The time course for fibril formation can be described by a sigmoidal curve with the following expression [Nielsen et al. (2001) Biochemistry 40, 6036-6046]:
[formula] Here, F is the ThT fluorescence at the time t. The constant t0 is the time needed to reach 50% of maximum fluorescence. The two important parameters describing fibril formation are the lag-time calculated by t0−2T and the apparent rate constant kapp=1/τ.
Few of those intermediates nucleate to form a template onto which further intermediates may assembly and the fibrillation proceeds. The lag-time corresponds to the interval in which the critical mass of nucleus is built up and the apparent rate constant is the rate with which the fibril itself is formed.
Samples were prepared freshly before each assay. Each sample composition is described in each example. The pH of the sample was adjusted to the desired value using appropriate amounts of concentrated NaOH and HClO4 or HCl. Thioflavin T was added to the samples from a stock solution in H2O to a final concentration of 1 μM.
Sample aliquots of 200 μl were placed in a 96 well microtiter plate (Packard OptiPlate™-96, white polystyrene). Usually, four or eight replica of each sample (corresponding to one test condition) were placed in one column of wells. The plate was sealed with Scotch Pad (Qiagen).
Incubation at given temperature, shaking and measurement of the ThT fluorescence emission were done in a Fluoroskan Ascent FL fluorescence platereader or Varioskan platereader (Thermo Labsystems). The temperature was adjusted to 37° C. The orbital shaking was adjusted to 960 rpm with an amplitude of 1 mm in all the presented data. Fluorescence measurement was done using excitation through a 444 nm filter and measurement of emission through a 485 nm filter.
Each run was initiated by incubating the plate at the assay temperature for 10 min. The plate was measured every 20 minutes for a desired period of time. Between each measurement, the plate was shaken and heated as described.
The measurement points were saved in Microsoft Excel format for further processing and curve drawing and fitting was performed using GraphPad Prism. The background emission from ThT in the absence of fibrils was negligible. The data points are typically a mean of four or eight samples and shown with standard deviation error bars. Only data obtained in the same experiment (i.e. samples on the same plate) are presented in the same graph ensuring a relative measure of fibrillation […].
The data set may be fitted to Eq. (1). However, since full sigmodial curves in this case are not always achieved during the measurement time, the degree of fibrillation is expressed as ThT fluorescence tabulated as the mean of the samples and shown with the standard deviation at various time points.
The polypeptide concentration in each of the tested formulations were measured both before application in the ThT fibrillation assay (“Initial”) and after completion of the ThT fibrillation (“After ThT assay”). Concentrations were determined by reverse HPLC methods using a pramlintide standard as a reference. Before measurement after completion 150 μl was collected from each of the replica and transferred to an Eppendorf tube. These were centrifuged at 30000 G for 40 mins. […]

Series [2] in a line: Assay (I) efficacy testing on appetite (food intake), ad libitum fed rat model. The class given is in vivo, Sprague Dawley (SD) rats. The note with it: 3 nmol/kg. Put shortly: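 Single ip, po or sc dosing (0.01-3 mg/kg, by body weight) at the start of the dark phase, in individually housed Sprague Dawley rats of 200-250 g with free food and water. Intake was logged per rat each hour to 7 h, then at 24 h (occasionally 48 h), against a vehicle group; outliers removed by Grubbs test.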

Turning to `CC[C@H](C)[C@H](NC(=O)[C@@H]1CCCN1C(=O)CNC(=O)[C@H](Cc1ccccc1)NC(=O)[C@H](CC(N)=O)NC(=O)[C@H](CC(N)=O)NC(=O)[C@H](CO)NC(=O)[C@H](CO)NC(=O)[C@H](Cc1c[nH]cn1)NC(=O)[C@H](CCCNC(=N)N)NC(=O)[C@H](CC(C)C)NC(=O)[C@H](Cc1ccccc1)NC(=O)[C@H](CCC(=O)O)NC(=O)[C@H](C)NC(=O)[C@H](CC(C)C)NC(=O)[C@H](CCCNC(=N)N)NC(=O)[C@H](CCC(N)=O)NC(=O)[C@@H](NC(=O)[C@H](C)NC(=O)[C@@H]1CSSC[C@H](NC(=O)CNC(=O)CC[C@H](NC(=O)CCCCCCCCCCCCCCCCCCC(=O)O)C(=O)O)C(=O)N[C@@H](CC(N)=O)C(=O)N[C@@H]([C@@H](C)O)C(=O)N[C@@H](C)C(=O)N[C@@H]([C@@H](C)O)C(=O)N1)[C@@H](C)O)C(=O)N[C@@H](CC(C)C)C(=O)N1CCC[C@H]1C(=O)N1CCC[C@H]1C(=O)N[C@H](C(=O)N[C@@H](CC(N)=O)C(=O)N[C@H](C(=O)NCC(=O)N[C@@H](CO)C(=O)N[C@@H](CC(N)=O)C(=O)N[C@H](C(=O)N1CCC[C@H]1C(N)=O)[C@@H](C)O)C(C)C)[C@@H](C)O` [Example 88, N-alpha-[(S)-4-Carboxy-4-(19-carboxynonadecanoylamino)butyryl]-[Gly1, Glu14, Arg17, Pro37]-pramlintide] ({C20 diacid-γGlu}-GCNTATCATQRLAEFLRHSSNNFGPILPPTNVGSNTP-NH2; disulfide 2-7 (inferred); C-terminus assumed), in series [1] (37° C., orbital shaking 960 rpm), the “Th T pH 4.0 lag time (h)” value is greater than 45 h. Besides, in series [1] (Table 9), the “ThT pH 4.0 lag time” value was greater than 45 hr.

As to `CC[C@H](C)[C@H](NC(=O)[C@@H]1CCCN1C(=O)CNC(=O)[C@H](Cc1ccccc1)NC(=O)[C@H](CC(N)=O)NC(=O)[C@H](CC(N)=O)NC(=O)[C@H](CO)NC(=O)[C@H](CO)NC(=O)[C@H](Cc1c[nH]cn1)NC(=O)[C@H](CCCNC(=N)N)NC(=O)[C@H](CC(C)C)NC(=O)[C@H](Cc1ccccc1)NC(=O)[C@H](CCC(=O)O)NC(=O)[C@H](C)NC(=O)[C@H](CC(C)C)NC(=O)[C@H](CCCNC(=N)N)NC(=O)[C@H](CCC(N)=O)NC(=O)[C@@H](NC(=O)[C@H](C)NC(=O)[C@@H]1CSSC[C@H](NC(=O)[C@H](CCCCN)NC(=O)[C@H](Cc2c[nH]cn2)NC(=O)CC[C@H](NC(=O)CCCCCCCCCCCCCCCCC(=O)O)C(=O)O)C(=O)N[C@@H](CC(N)=O)C(=O)N[C@@H]([C@@H](C)O)C(=O)N[C@@H](C)C(=O)N[C@@H]([C@@H](C)O)C(=O)N1)[C@@H](C)O)C(=O)N[C@@H](CC(C)C)C(=O)N1CCC[C@H]1C(=O)N1CCC[C@H]1C(=O)N[C@H](C(=O)N[C@@H](CC(N)=O)C(=O)N[C@H](C(=O)NCC(=O)N[C@@H](CO)C(=O)N[C@@H](Cc1c[nH]cn1)C(=O)N[C@H](C(=O)N[C@@H](Cc1ccc(O)cc1)C(N)=O)[C@@H](C)O)C(C)C)[C@@H](C)O` [compound 71] ({C18 diacid-γGlu}-HKCNTATCATQRLAEFLRHSSNNFGPILPPTNVGSHTY-NH2; disulfide 3-8 (inferred); C-terminus assumed), in series [2], the “Food intake reduction 0-24 h 3 nmol/kg (%)” value is on record as 10% and the “Food intake reduction 24-48 h 3 nmol/kg (%)” value worked out at 0%.

Take `CC[C@H](C)[C@H](NC(=O)[C@H](CCCCNC(=O)COCCOCCNC(=O)COCCOCCNC(=O)CC[C@H](NC(=O)CCCCCCCCCCCCCCCCC(=O)O)C(=O)O)NC(=O)CNC(=O)[C@H](Cc1ccccc1)NC(=O)[C@H](CC(N)=O)NC(=O)[C@H](CC(N)=O)NC(=O)[C@H](CO)NC(=O)[C@H](CO)NC(=O)[C@H](Cc1c[nH]cn1)NC(=O)[C@H](Cc1c[nH]cn1)NC(=O)[C@H](CC(C)C)NC(=O)[C@H](Cc1ccccc1)NC(=O)[C@H](CCC(=O)O)NC(=O)[C@H](C)NC(=O)[C@H](CC(C)C)NC(=O)[C@H](CCCNC(=N)N)NC(=O)[C@H](CCC(N)=O)NC(=O)[C@@H](NC(=O)[C@H](C)NC(=O)[C@@H]1CSSC[C@H](NC(=O)[C@@H](N)CCCCN)C(=O)N[C@@H](CC(N)=O)C(=O)N[C@@H]([C@@H](C)O)C(=O)N[C@@H](C)C(=O)N[C@@H]([C@@H](C)O)C(=O)N1)[C@@H](C)O)C(=O)N[C@@H](CC(C)C)C(=O)N1CCC[C@H]1C(=O)N1CCC[C@H]1C(=O)N[C@H](C(=O)N[C@@H](CC(N)=O)C(=O)N[C@H](C(=O)NCC(=O)N[C@@H](CO)C(=O)N[C@@H](CC(N)=O)C(=O)N[C@H](C(=O)N[C@@H](Cc1ccc(O)cc1)C(N)=O)[C@@H](C)O)C(C)C)[C@@H](C)O` [compound 73] (H-KCNTATCATQRLAEFLHHSSNNFGK([AEEA-AEEA-γGlu-C18 diacid])ILPPTNVGSNTY-NH2; disulfide 2-7 (inferred); N-terminus and C-terminus assumed): in series [2], the “Food intake reduction 0-24 h 3 nmol/kg (%)” value is on record as 29% and the “Food intake reduction 24-48 h 3 nmol/kg (%)” value was 2%.

As for `CC[C@H](C)[C@H](NC(=O)[C@@H]1CCCN1C(=O)CNC(=O)[C@H](Cc1ccccc1)NC(=O)[C@H](CC(N)=O)NC(=O)[C@H](CCC(N)=O)NC(=O)[C@H](CO)NC(=O)[C@H](CO)NC(=O)[C@H](Cc1c[nH]cn1)NC(=O)[C@H](Cc1c[nH]cn1)NC(=O)[C@H](CC(C)C)NC(=O)[C@H](Cc1ccccc1)NC(=O)[C@H](CCC(=O)O)NC(=O)[C@H](C)NC(=O)[C@H](CC(C)C)NC(=O)[C@H](CCCNC(=N)N)NC(=O)[C@H](CCC(N)=O)NC(=O)[C@@H](NC(=O)[C@H](C)NC(=O)[C@@H]1CSSC[C@H](NC(=O)[C@H](CCCCN)NC(=O)CC[C@H](NC(=O)CCCCCCCCCCCCCCCCCCC(=O)O)C(=O)O)C(=O)N[C@@H](CC(N)=O)C(=O)N[C@@H]([C@@H](C)O)C(=O)N[C@@H](C)C(=O)N[C@@H]([C@@H](C)O)C(=O)N1)[C@@H](C)O)C(=O)N[C@@H](CC(C)C)C(=O)N1CCC[C@H]1C(=O)N1CCC[C@H]1C(=O)N[C@H](C(=O)N[C@@H](CC(N)=O)C(=O)N[C@H](C(=O)NCC(=O)N[C@@H](CO)C(=O)N[C@@H](Cc1c[nH]cn1)C(=O)N[C@H](C(=O)N[C@@H](Cc1ccc(O)cc1)C(N)=O)[C@@H](C)O)C(C)C)[C@@H](C)O` [compound 117] ({C20 diacid-γGlu}-KCNTATCATQRLAEFLHHSSQNFGPILPPTNVGSHTY-NH2; disulfide 2-7 (inferred); C-terminus assumed), in series [2], the “Food intake reduction 0-24 h 3 nmol/kg (%)” value is recorded as 50% and the “Food intake reduction 24-48 h 3 nmol/kg (%)” value is on record as 35%.

Regarding `CC[C@H](C)[C@H](NC(=O)[C@@H]1CCCN1C(=O)CNC(=O)[C@H](Cc1ccccc1)NC(=O)[C@H](CC(N)=O)NC(=O)[C@H](CC(N)=O)NC(=O)[C@H](CO)NC(=O)[C@H](CO)NC(=O)[C@H](CCCNC(=N)N)NC(=O)[C@H](Cc1c[nH]cn1)NC(=O)[C@H](CC(C)C)NC(=O)[C@H](Cc1ccccc1)NC(=O)[C@H](CCC(=O)O)NC(=O)[C@H](C)NC(=O)[C@H](CC(C)C)NC(=O)[C@H](CCCNC(=N)N)NC(=O)[C@H](CCC(N)=O)NC(=O)[C@@H](NC(=O)[C@H](C)NC(=O)[C@@H]1CSSC[C@H](NC(=O)[C@H](CCCN)NC(=O)[C@@H](CCCNC(=N)N)NC(=O)[C@@H](CCCNC(=N)N)NC(=O)COCCOCCNC(=O)COCCOCCNC(=O)CC[C@H](NC(=O)CCCCCCCCCCCCCCCCC(=O)O)C(=O)O)C(=O)N[C@@H](CC(N)=O)C(=O)N[C@@H]([C@@H](C)O)C(=O)N[C@@H](C)C(=O)N[C@@H]([C@@H](C)O)C(=O)N1)[C@@H](C)O)C(=O)N[C@@H](CC(C)C)C(=O)N1CCC[C@H]1C(=O)N1CCC[C@H]1C(=O)N[C@H](C(=O)N[C@@H](CC(N)=O)C(=O)N[C@H](C(=O)NCC(=O)N[C@@H](CO)C(=O)N[C@@H](CC(N)=O)C(=O)N[C@H](C(=O)N[C@@H](Cc1ccc(O)cc1)C(N)=O)[C@@H](C)O)C(C)C)[C@@H](C)O` [compound 120] ({C18 diacid-γGlu-AEEA-AEEA}-[dR][dR][Orn]CNTATCATQRLAEFLHRSSNNFGPILPPTNVGSNTY-NH2; disulfide 4-9 (inferred); C-terminus assumed), in series [2], the “Food intake reduction 0-24 h 3 nmol/kg (%)” value is 53% and the “Food intake reduction 24-48 h 3 nmol/kg (%)” value came to 2%.
